Measurements: EP4810054A1, “NECROPTOSIS CONTROL AGENT” (The University of Tokyo, priority 2023, dated 2025)

Columns and labels:
MSP-1 neurons [1] = experiment: P-MLKL immunostaining (necroptosis) of MSP-1 neurons treated with culture supernatant of TNF-α-treated astrocytes; assay type: cell-based, mouse
Protocol: (§1) To obtain differentiated astrocytes, the above MSP-1 cells were harvested and cultured overnight in the MSP-1 proliferation medium on new dishes. The next day, for differentiation into astrocytes, the cells were cultured in serum-free DMEM/F12 medium containing N-2 supplement (R&D Systems), leukemia inhibitory factor (LIF, 10 ng/ml, Fujifilm Wako Pure Chemical Industries), and ciliary neurotrophic factor (CNTF, 10 ng/ml, Fujifilm Wako Pure Chemical Industries). For differentiation into neurons, the cells were cultured in serum-free DMEM/F12 medium containing only N-2 supplement. These media are referred to as MSP-1 differentiation media. Each medium was replaced with fresh medium every 2 days. For differentiation into astrocytes, in particular, on […], the cells were exposed to tumor necrosis factor-α (TNF-α, 100 ng/ml, Fujifilm Wako Pure Chemical Industries) for 24 hours. In the anserine treatment group, the cells were pretreated with L-anserine nitrate (Fujifilm Wako Pure Chemical Industries) for 2 hours prior to the exposure to TNF-α.
The harvested MSP-1 cells were cultured in the MSP-1 differentiation medium on poly-L-lysine/fibronectin-coated chamber glass (4-well, Watson) and differentiated into astrocytes. After the TNF-α treatment, the cells were fixed with 4% PFA for 10 minutes and washed with TBS for 10 minutes. Subsequently, the cells were blocked with 5% BSA diluted in 0.05% TBS-X at room temperature for 60 minutes, then incubated overnight at 4°C in a blocking solution containing primary antibodies. The primary antibodies used in this study were anti-GFAP (mouse, 1:1000, Sigma), anti-NeuN (mouse, 1:1000, Millipore), anti-NF-κB p65 (rabbit, 1:500, CST), and anti-P-MLKL (rabbit, 1:2000, Abcam). The cells were then washed three times with TBS for 5 minutes each, and incubated with secondary antibodies at room temperature for 2 hours. The secondary antibodies used in this study were anti-mouse IgG donkey Alexa 488 (1:1000, Molecular Probes) and anti-rabbit IgG donkey Alexa 568 (1:1000, Molecular Probes). After washing with TBS for 5 minutes, the sections were incubated with DAPI (1:10,000, Sigma) in TBS for 5 minutes, and then washed with TBS 2 times for 5 minutes each. The cells were visualized using a confocal microscope (FV3000-L4EN-TN21, Olympus).
To obtain differentiated astrocytes, the MSP-1 cells were harvested and cultured overnight in the MSP-1 proliferation medium on new dishes. The next day, the medium was replaced with serum-free DMEM/F12 medium containing N-2 supplement (R&D Systems), leukemia inhibitory factor (LIF, 10 ng/ml, Wako), and ciliary neurotrophic factor (CNTF, 10 ng/ml, Wako). This medium was referred to as astrocyte differentiation medium. The culture medium was replaced with fresh medium every 2 or 3 days. […]

[2] = test system: MSP-1 cells differentiated into astrocytes; experiment: RNA sequencing (DEG, GO/KEGG, GSEA) of TNF-α-treated MSP-1 astrocytes; assay type: cell-based, mouse
Protocol: as §1
The MSP-1 cells differentiated into astrocytes were harvested by trypsin treatment, and total RNA was isolated using the RNeasy Mini Kit (Qiagen). Samples (10 ng input) were pretreated using the SMART-seq Stranded Kit (Takara, Japan). Sequencing was performed using Illumina NovaSeq 6000 (Illumina, USA).
Gene expression levels were assessed by using transcripts per million (TPM) data, and differentially expressed genes (DEGs) were identified using the DESeq2 package in the R environment. Genes with p-values less than 0.05 were considered DEGs. […] Gene set enrichment analysis (GSEA) was performed based on the TPM data.
On day 5, TNF-α (100 ng/ml) was added to the MSP-1 cells differentiated into astrocytes, and the cells were treated for 24 hours. In the TNF-α + anserine group, 10 µM anserine was added to the culture medium 2 hours prior to the TNF-α treatment. These cells were harvested, and RNA sequencing (RNA-seq) analysis was performed to examine the expressed genes. […] Necroptosis-promoting factors such as C3, Ccl2, Ccl7, and Cxcl1 increased after the TNF-α treatment and decreased in the TNF-α + anserine group.
(§2) To obtain differentiated astrocytes, the MSP-1 cells were harvested and cultured overnight in the MSP-1 proliferation medium on new dishes. The next day, the medium was replaced with serum-free DMEM/F12 medium containing N-2 supplement (R&D Systems), leukemia inhibitory factor (LIF, 10 ng/ml, Wako), and ciliary neurotrophic factor (CNTF, 10 ng/ml, Wako). This medium was referred to as astrocyte differentiation medium. The culture medium was replaced with fresh medium every 2 or 3 days. On day 5, the cells were exposed to tumor necrosis factor-α (TNF-α, 100 ng/ml, Wako) for 24 hours. For anserine treatment group, the cells were pretreated with L-anserine (Toronto Research Chemicals) for 2 hours prior to the exposure to TNF-α. To obtain differentiated neurons, the culture medium for MSP-1 cells was replaced with the serum-free DMEM/F12 medium containing N-2 supplement. This medium was referred to as neuron differentiation medium. The culture medium was replaced with fresh medium every 2 days. On day 5, the cells were treated for 24 hours with the culture supernatant of the astrocytes induced from MSP-1 cells. Nec-1 and the C3aR antagonist (SB290157) were purchased from Selleck.
Total RNA was isolated from isolated astrocytes and astrocytes differentiated from MSP-1 cells using RNeasy Mini Kit (Qiagen). RNA samples in an amount of 1 ng (isolated astrocytes) or 10 ng (cultured astrocytes) were pretreated using the SMART-seq Stranded Kit (Takara Bio, Japan). Sequencing was performed using Illumina NovaSeq 6000 (Illumina, USA). Gene expression levels were evaluated using transcripts per million (TPM) data, and differentially expressed genes (DEGs) were identified using the DESeq2 package in the R environment. […]

[3] = test system: C3, Ccl2, Cxcl1, and iNOS; experiment: Real-time PCR of inflammatory factor genes in TNF-α-treated MSP-1 astrocytes; assay type: cell-based, mouse
Protocol: as §2, with “On day 5, the cells were treated for 24 hours with the culture supernatant of the astrocytes induced from MSP-1 cells. Nec-1 and the C3aR antagonist (SB290157) were purchased from Selleck.” left out
Reverse transcription reactions for cDNA synthesis were performed on the isolated RNA samples (500 ng) using SuperScript™ III Reverse Transcriptase (Thermo Fisher) according to the manufacturer's instructions. […] Analysis was performed by the 2-ΔΔ-Ct method, and the results are expressed as fold changes. […]

phospho-NF-κB = experiment: Immunostaining of phospho-NF-κB (P-P65) in TNF-α-treated MSP-1 astrocytes; assay type: cell-based, mouse
Protocol: The harvested MSP-1 cells were cultured in the MSP-1 differentiation medium on poly-L-lysine/fibronectin-coated chamber glass (4-well, Watson) and differentiated into astrocytes. After the TNF-α treatment, the cells were fixed with 4% PFA for 10 minutes and washed with TBS for 10 minutes. Subsequently, the cells were blocked with 5% BSA diluted in 0.05% TBS-X at room temperature for 60 minutes, then incubated overnight at 4°C in a blocking solution containing primary antibodies. The primary antibodies used in this study were anti-GFAP (mouse, 1:1000, Sigma), anti-NeuN (mouse, 1:1000, Millipore), anti-NF-κB p65 (rabbit, 1:500, CST), and anti-P-MLKL (rabbit, 1:2000, Abcam). […]
(§3) The cells were cultured on poly-L-lysine/fibronectin-coated chamber glass (4-well or 8-well, Watson) containing the respective MSP-1 differentiation media to induce differentiation into astrocytes or neurons. […] The images were analyzed and quantified using ImageJ.
(§4) Microscopic images were analyzed using the ImageJ software. For AT8, P-RIPK1, and P-MLKL staining, staining intensity was calculated. […] For P-P65 staining, only the staining intensity in the nucleus was calculated, and the data are presented as relative intensity ± S.E.M. for each group. At least 100 cells for each group were analyzed from at least 10 random images.

MSP-1 neurons [4] = experiment: AT8 (tau phosphorylation) immunostaining of MSP-1 neurons treated with astrocyte culture medium; assay type: cell-based, mouse
Protocol: (§5) To obtain differentiated astrocytes, the MSP-1 cells were harvested and cultured overnight in the MSP-1 proliferation medium on new dishes. The next day, the medium was replaced with serum-free DMEM/F12 medium containing N-2 supplement (R&D Systems), leukemia inhibitory factor (LIF, 10 ng/ml, Wako), and ciliary neurotrophic factor (CNTF, 10 ng/ml, Wako). This medium was referred to as astrocyte differentiation medium. The culture medium was replaced with fresh medium every 2 or 3 days. On day 5, the cells were exposed to tumor necrosis factor-α (TNF-α, 100 ng/ml, Wako) for 24 hours. For anserine treatment group, the cells were pretreated with L-anserine (Toronto Research Chemicals) for 2 hours prior to the exposure to TNF-α. […]
as §3, §4

MSP-1 neurons [5] = experiment: P-RIPK1 immunostaining of MSP-1 neurons treated with astrocyte culture medium; assay type: cell-based, mouse; conditions: MSP-1 neurons treated with anserine CM
Protocol: as §5, §3, §4

[6] = test system: phosphorylated IKK complex; experiment: Phosphorylated IKK immunostaining in TNF-α-treated MSP-1 astrocytes; assay type: cell-based, mouse; conditions: MSP-1 astrocytes treated with TNF-α, addition of anserine; Fig. 6
Protocol: as §2, with “Nec-1 and the C3aR antagonist (SB290157) were purchased from Selleck.” left out
as §3

[7] = Stability of anserine (temperature, storage in solution); assay type: physicochemical
[8] = test system: male albino rats with experimentally induced sepsis; conditions: carnosine 25 mg/kg and 50 mg/kg for 30 days; cited from earlier work
[9] = 10 µM anserine 2 hours prior to TNF-α 100 ng/ml, 24 hours, versus TNF-α group
[10] = 10 µM anserine added 2 hours prior to TNF-α (100 ng/ml, 24 hours), RNA-seq
[11] = Example 2, MSP-1 astrocytes pretreated with anserine before TNF-α, Fig. 5A

N=C(N)NCCCC(NC(=O)COCC(c1ccccc1)c1ccccc1)C(=O)O (centres unmarked) [C3aR antagonist, reference compound]
p-MLKL intensity (MSP-1 neurons [1]; MSP-1 neurons treated with TNF CM plus C3aRA (10 µM), Fig. 4): decreased significantly

CN1C(=O)C(Cc2c[nH]c3ccccc23)NC1=S (centres unmarked) [Nec-1, necrostatin-1, reference compound]
p-MLKL intensity (MSP-1 neurons [1]; MSP-1 neurons treated with TNF CM plus Nec 1 (30 µM), Fig. 4): decreased significantly to the same level

Cn1cncc1C[C@H](NC(=O)CCN)C(=O)O [anserine, (2S)-2-[(3-amino-1-oxopropyl)amino]-3-(3-methyl-4-imidazolyl)propanoic acid]
Mfge8 (milk fat globule-EGF factor 8) expression (RNA-seq) [2, 9]: increased
Necroptosis-promoting factors such as C3, Ccl2, Ccl7, and Cxcl1 (expression, RNA-seq) [2, 9]: decreased
DEGs down-regulated, TNF-α + anserine vs TNF-α treatment group [2, 10]: 169
DEGs up-regulated, TNF-α + anserine vs TNF-α treatment group [2, 10]: 159
differentially expressed genes (DEGs) in the TNF-α + anserine treatment group in comparison with the TNF-α treatment group [2, 10]: 328
complement activation [2, 11]: reduced
expression of gene groups involved in necroptosis induction (chemokine signaling pathway, response to cytokine, immune response, TNF signaling-related genes), GO and KEGG analyses ([2]; TNF-α + anserine group): significant decrease in expression
expressions of inflammation-related genes, chemokine pathway, and complement activation pathway (GSEA) ([2]; TNF-α + anserine group versus TNF-α group): decreased
expressions of inflammatory factors such as C3 [3, 11]: decreased
expressions of C3, Ccl2, Cxcl1, and iNOS (real-time PCR) ([3]; anserine treatment group versus TNF-α treatment group, Fig. 2D): significantly decreased
NF-κB activity (phospho-NF-κB; [11]): reduced
expression of phospho-NF-κB (phospho-NF-κB; anserine treatment, TNF-α-induced MSP-1 astrocytes, Figs. 2B and 2C): reduced
intensity of P-MLKL (MSP-1 neurons [1]; MSP-1 neurons treated with anserine CM, Fig. 4): significant decrease
necroptosis of MSP-1 neurons (expression of P-MLKL in necrosomes) (MSP-1 neurons [1]; culture supernatant containing 10 mM anserine in addition to TNF-α, compared with sham group, Fig. 3): suppressed to a degree comparable to that observed with untreated culture supernatant (sham group)
intensity of AT8 (MSP-1 neurons [4]; MSP-1 neurons treated with anserine CM): significant decrease
tau-phosphorylation (p-tau expression, AT-8 staining) (MSP-1 neurons [4]; MSP-1 neurons treated with culture medium from TNF-α + anserine group (anserine CM), Fig. 4): did not exhibit such p-tau expression
intensity of P-RIPK1 (MSP-1 neurons [5]): significant decrease
expression of the phosphorylated IKK complex [6]: reduced
stable storage in solution (duration) ([7]; in solution): at least two years and nine months
stability at room temperature and under conditions of 180°C or lower ([7]; room temperature, 180°C or lower): sufficiently stable

NCCC(=O)N[C@@H](Cc1cnc[nH]1)C(=O)O [carnosine]
IL-β, TNF-α, and MIF [8]: reduced
expression of IκBα [8]: increased
increased expression of p65 and p-IKKα/β (Ser 180/Ser 181) [8]: suppressed
lipid peroxidation and other antioxidant enzymes [8]: significantly normalized
